The target in data set [1] is T1, recombinant human plasminogen activator inhibitor-1 (Homo sapiens, UniProt P05121).
T1 construct: purchased Molecular Innovations, Royal Oak, Mich
In words: Primary screen for the PAI-1 inhibition (residual tPA activity, Spectrozyme-tPA chromogenic substrate). It is filed as biochemical. Particulars: pH 6.6 buffer, 140 nM PAI-1, 70 nM tPA; for inhibition at 25 µM / Inhibition @25 uM (%): test compound 25 uM; for Inhibition (%) (100 uM): test compound 100 uM (cell annotated "(100 uM)" instead of 25 uM). On the procedure: Primary Screen for the PAI-1 Inhibition
Test compounds were dissolved in DMSO at a final concentration of 10 mM, then diluted 100× in physiologic buffer. The inhibitory assay was initiated by the addition of the test compound (1-100 μM final concentration, maximum DMSO concentration of 0.2%) in a pH 6.6 buffer containing 140 nM recombinant human plasminogen activator inhibitor-1 (Molecular Innovations, Royal Oak, Mich.). Following a 1 hour incubation at room temperature, 70 nM of recombinant human tissue plasminogen activator (tPA) was added, and the combination of the test compound, PAI-1 and tPA was incubated for an additional 30 minutes. Following the second incubation, Spectrozyme-tPA (American Diagnostica, Greenwich, Conn.), a chromogenic substrate for tPA, was added and absorbance read at 405 nm at 0 and 60 minutes. Relative PAI-1 inhibition was equal to the residual tPA activity in the presence of the test compound and PAI-1. Control treatments included the complete inhibition of tPA by PAI-1 at the molar ratio employed (2:1), and the absence of any effect of the test compound on tPA alone.

The target in a further data set is human PAI-1 (Homo sapiens, UniProt P05121). In words: Assay for determining IC50 of inhibition of PAI-1 (active PAI-1 bound to tPA-coated plate, 33B8 antibody detection). Particulars: human PAI-1 50 ng/ml, pH 7.5, tPA-coated plate. It is filed as biochemical. On the procedure: Assay for Determining IC50 OF Inhibition of PAI-1
This assay was based upon the non-SDS dissociable interaction between tPA and active PAI-1. Assay plates were initially coated with human tPA (10 μg/ml). The test compounds were dissolved in DMSO at 10 mM, then diluted with physiologic buffer (pH 7.5) to a final concentration of 1-50 μM. The test compounds were incubated with human PAI-1 (50 ng/ml) for 15 minutes at room temperature. The tPA-coated plate was washed with a solution of 0.05% Tween 20 and 0.1% BSA, then the plate is blocked with a solution of 3% BSA. An aliquot of the test compound/PAI-1 solution was then added to the tPA-coated plate, incubated at room temperature for 1 hour, and washed. Active PAI-1 bound to the plate was assessed by adding an aliquot of a 1:1000 dilution of the 33B8 monoclonal antibody against human PAI-1, and incubating the plate at room temperature for 1 hour (Molecular Innovations, Royal Oak, Mich.). The plate was again washed, and a solution of goat anti-mouse IgG-alkaline phosphatase conjugate is added at a 1:50,000 dilution in goat serum. The plate was incubated 30 minutes at room temperature, washed, and a solution of alkaline phosphatase substrate was added. The plate was incubated 45 minutes at room temperature, and color development was determined at OD405 nm. The quantitation of active PAI-1 bound to tPA at varying concentrations of the test compound was used to determine the IC50. Results were analyzed using a logarithmic best-fit equation. The assay sensitivity was 5 ng/ml of human PAI-1 as determined from a standard curve ranging from 0-100 ng/ml.

T1 sequence (P05121 24-402): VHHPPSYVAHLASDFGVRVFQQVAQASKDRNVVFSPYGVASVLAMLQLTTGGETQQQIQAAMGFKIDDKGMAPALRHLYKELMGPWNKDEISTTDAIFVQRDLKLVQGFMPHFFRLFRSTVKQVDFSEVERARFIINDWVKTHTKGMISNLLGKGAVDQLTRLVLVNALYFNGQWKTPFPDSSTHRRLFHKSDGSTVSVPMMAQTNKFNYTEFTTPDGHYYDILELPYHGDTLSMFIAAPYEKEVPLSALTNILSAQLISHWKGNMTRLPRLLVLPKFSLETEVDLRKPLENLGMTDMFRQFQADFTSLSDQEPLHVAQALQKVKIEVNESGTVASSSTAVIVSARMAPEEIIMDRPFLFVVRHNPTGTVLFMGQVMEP
human PAI-1, sequence (P05121 24-402): as above

The term inhibition denotes the percentage by which the read-out fell short of the control. For the compound `COc1cccc(COc2ccc(-n3cc(C(=O)C(=O)O)c4ccccc43)cc2)c1` [Example 2, {1-[4-(3-Methoxybenzyloxy)phenyl]-1H-indol-3-yl}(oxo)acetic acid], in data set [1], the inhibition at 25 µM stood at 43%. Consider `N#Cc1ccc(COc2ccc(-n3cc(C(=O)C(=O)O)c4ccccc43)cc2)cc1` [Example 1, (1-{4-[(4-Cyanobenzyl)oxy]phenyl}-1H-indol-3-yl)(oxo)acetic acid], for which the inhibition at 25 µM in data set [1] was determined as 23%. Same read-out and setting: to `N#Cc1ccc(COc2cccc(-n3cc(C(=O)C(=O)O)c4cc(Cl)ccc43)c2)cc1` [Example 9, {5-Chloro-1-[3-(4-cyanobenzyloxy)phenyl]-1H-indol-3-yl}(oxo)acetic acid] belongs 44%.

As to `C=CCOc1ccc2c(c1)c(C(=O)C(=O)O)cn2CC1CCC1` [Example 24, (5-Allyloxy-1-cyclobutylmethyl-1H-indol-3-yl)-oxo-acetic acid], in data set [1], the “Inhibition (%) (100 uM)” value is 13%. As to `Cc1ccc2c(c1)c(C(=O)C(=O)O)cn2-c1ccc(OCc2ccc(Cl)cc2Cl)cc1` [Example 8, {1-[4-(2,4-Dichlorobenzyloxy)phenyl]-5-methyl-1H-indol-3-yl}(oxo)acetic acid], the “Inhibition (%) (100 uM)” value in data set [1] turned out to be 34%. With `N#Cc1ccc(COc2ccc(-n3cc(C(=O)C(=O)O)c4cc(F)ccc43)cc2)cc1` [Example 4, {1-[4-(4-Cyanobenzyloxy)phenyl]-5-fluoro-1H-indol-3-yl}(oxo)acetic acid], the “Inhibition (%) (100 uM)” value in data set [1] is 40%.

As usually defined, the IC50 is the point on the concentration scale where inhibition reaches its midpoint. Lower therefore signals higher potency. On to “{1-[4-(3-Chlorobenzyloxy) phenyl]-1H-indol-3-yl}(oxo)acetic acid [Example 3]”, for which the “Inhibition @25 uM (%)” value in data set [1] is on record as 78%. Also, on human PAI-1, the IC50 was above 25 µM.

As usually defined, the melting point is the temperature of the solid-liquid transition. In turn, `O=C(O)C(=O)c1cn(Cc2ccccc2)c2ccc(Oc3ccc(C(F)(F)F)cc3Cl)cc12` [Example 23, [1-Benzyl-5-(2-chloro-4-trifluoromethyl-phenoxy)-1H-indol-3-yl](oxo)acetic acid] yielded a melting point of 152 to 154 °C. For the same compound, the inhibition at 25 µM in data set [1] is 52%. Moreover, the IC50 on human PAI-1 was 12.3 µM. Consider `O=C(O)C(=O)c1cn(-c2cccc(OCc3cc(Cl)nc(Cl)c3)c2)c2ccc(Cl)cc12` [Example 19, {5-Chloro-1-[3-(2,6-dichloropyridin-4-ylmethoxy)phenyl]-1H-indol-3-yl}(oxo)acetic acid], for which the inhibition at 25 µM in data set [1] is 46%. Turning to `O=C(O)C(=O)c1cn(-c2ccc(OCc3ccc(-c4csnn4)cc3)cc2)c2ccccc12` [Example 12, {1-[4-(4-[1,2,3]thiadiazol-4-ylbenzyloxy)phenyl]-1H-indol-3-yl}(oxo)acetic acid], in data set [1], the “Inhibition (%) (100 uM)” value turned out to be 32%. On to `COc1cc(COc2ccc(-n3cc(C(=O)C(=O)O)c4cc(F)ccc43)cc2)cc(OC)c1` [Example 5, {1-[4-(3,5-Dimethoxybenzyloxy)phenyl]-5-fluoro-1H-indol-3-yl}(oxo)acetic acid], for which the inhibition at 25 µM in data set [1] was 26%. For `O=C(O)C(=O)c1cn(-c2ccc(OC(F)(F)F)cc2)c2ccc(-c3ccc(OC(F)(F)F)cc3)cc12` [Example 20, [1,5-Bis-(4-trifluoromethoxy-phenyl)-1H-indol-3-yl]-oxo-acetic acid], the inhibition at 25 µM in data set [1] is 56%. Besides, the IC50 on human PAI-1 is above 25 µM. For the compound `CCOC(=O)c1ccc(COc2ccc(-n3cc(C(=O)C(=O)O)c4cc(F)ccc43)cc2)o1` [Example 14, 5-[4-(5-Fluoro-3-carboxy(oxo)methyl-1H-indol-1-yl)phenoxymethyl]furan-2-carboxylic acid ethyl ester], the “Inhibition @25 uM (%)” value in data set [1] is 43%. The compound `O=C(O)C(=O)c1cn(Cc2ccc(F)cc2)c2ccc(OCCc3ccc(F)cc3)cc12` [Example 21] yielded a melting point of 171 to 173 °C. The inhibition at 25 µM in data set [1] was determined as 6%. Turning to `O=C(O)C(=O)c1cn(-c2cccc(OCc3c(F)c(F)c(C(F)(F)F)c(F)c3F)c2)c2ccc(Cl)cc12` [Example 16, {5-Chloro-1-[3-(2,3,5,6-tetrafluoro-4-trifluoromethylbenzyloxy)phenyl]1H-indol-3-yl}(oxo)acetic acid], in data set [1], the inhibition at 25 µM was found to be 75%. Further, at human PAI-1, the IC50 was above 25 µM.

As to `Cc1ccc2c(c1)c(C(=O)C(=O)O)cn2-c1ccc(OCc2cccc(Cl)c2)cc1` [Example 6, {1-[4-(3-Chlorobenzyloxy)phenyl]-5-methyl-1H-indol-3-yl}(oxo)acetic acid], in data set [1], the inhibition at 25 µM came to 54%. Besides, the IC50 on human PAI-1 was above 25 µM. With `C=CCOc1ccc2c(c1)c(C(=O)C(=O)O)cn2Cc1ccc2c(c1)OCO2` [Example 26, (5-Allyloxy-1-benzo[1,3]dioxol-5-ylmethyl-1H-indol-3-yl)-oxo-acetic acid], the “Inhibition (%) (100 uM)” value in data set [1] was found to be 8%.

Turning to “5-[3-(5-Chloro-3-carboxy(oxo)methyl-1H-indol-1-yl)phenoxymethyl]furan-2-carboxylic acid ethyl ester [Example 17]”, in data set [1], the “Inhibition (%) (100 uM)” value is given as 49%.

Consider `C=CCOc1ccc2c(c1)c(C(=O)C(=O)O)cn2CCc1cccc2ccccc12` [Example 28, [5-Allyloxy-1-(2-naphthalen-1-yl-ethyl)-1H-indol-3-yl]-oxo-acetic acid], for which the inhibition at 25 µM in data set [1] came to 12%. On the same count and under the same terms, for `C=CCOc1ccc2c(c1)c(C(=O)C(=O)O)cn2CCc1ccc(Br)cc1` [Example 30, {5-Allyloxy-1-[2-(4-bromophenyl)-ethyl]-1H-indol-3-yl}-oxo-acetic acid] the value was 29%; for `O=C(O)C(=O)c1cn(-c2ccc(OCc3c(F)c(F)c(C(F)(F)F)c(F)c3F)cc2)c2ccccc12` [Example 11, {1-[4-(2,3,5,6-tetrafluoro-4-trifluoromethylbenzyloxy)phenyl]1H-indol-3-yl}(oxo)acetic acid], 66%. On to `C=CCOc1ccc2c(c1)c(C(=O)C(=O)O)cn2CCc1ccc(OC)cc1` [Example 27, {5-Allyloxy-1-[2-(4-methoxy-phenyl)-ethyl]-1H-indol-3-yl}-oxo-acetic acid], for which, in data set [1], the “Inhibition (%) (100 uM)” value was found to be 16%. As for `C=CCOc1ccc2c(c1)c(C(=O)C(=O)O)cn2CCc1cccc(C(F)(F)F)c1` [Example 29, {5-Allyloxy-1-[2-(3-trifluoromethylphenyl)-ethyl]-1H-indol-3-yl}-oxo-acetic acid], the “Inhibition (%) (100 uM)” value in data set [1] is listed as 29%. `Cc1ccc2c(c1)c(C(=O)C(=O)O)cn2-c1ccc(OCc2cc(Cl)nc(Cl)c2)cc1` [Example 15, {1-[4-(2,6-dichloropyridin-4-ylmethoxy)phenyl]-5-methyl-1H-indol-3-yl}(oxo)acetic acid]: the inhibition at 25 µM in data set [1] was found to be 5%. As to `O=C(O)C(=O)c1cn(-c2cccc(OCc3ccc(-c4csnn4)cc3)c2)c2ccc(Cl)cc12` [Example 18, {5-Chloro-1-[3-(4-[1,2,3]thiadiazol-4-ylbenzyloxy)phenyl]-1H-indol-3-yl}(oxo)acetic acid], in data set [1], the inhibition at 25 µM is 45%. Still for that read-out and setting: to `Cc1ccc2c(c1)c(C(=O)C(=O)O)cn2-c1ccc(OCc2ccc(C(C)(C)C)cc2)cc1` [Example 7, {1-[4-(4-tert-Butylbenzyloxy)phenyl]-5-methyl-1H-indol-3-yl}(oxo)acetic acid] belongs 62%. Same read-out and setting: to `O=C(O)C(=O)c1cn(-c2ccc(OCc3cc(Cl)nc(Cl)c3)cc2)c2ccccc12` [Example 13, {1-[4-(2,6-Dichloropyridin-4-ylmethoxy)phenyl]1H-indol-3-yl}(oxo)acetic acid] belongs 39%. The same measure, in the same setting: to `COc1cc(COc2cccc(-n3cc(C(=O)C(=O)O)c4cc(Cl)ccc43)c2)cc(OC)c1` [Example 10, {5-Chloro-1-[3-(3,5-dimethoxybenzyloxy)phenyl]-1H-indol-3-yl}(oxo)acetic acid] belongs 1%; to `O=C(O)C(=O)c1cn(Cc2ccccc2)c2ccc(OCc3ccccc3)cc12` [Example 22, (1-Benzyl-5-benzyloxy-1H-indol-3-yl)-oxo-acetic acid], 13%. For the compound `C=CCOc1ccc2c(c1)c(C(=O)C(=O)O)cn2CCc1ccccc1` [Example 25, (5-Allyloxy-1-phenethyl-1H-indol-3-yl)-oxo-acetic acid], the “Inhibition (%) (100 uM)” value in data set [1] was 8%.

(Values after US7674818B2, “Aryl, aryloxy, alkyloxy substituted 1H-indol-3-yl glyoxylic acid derivatives as inhibitors of plasminogen activator inhibitor-1 (PAI-1)” (Wyeth LLC, priority 2002, dated 2010).)
